PubChem BioAssay AID1963875 (Molecular Pharmacology Branch, DTP, NCI, 2024)

System: KRAS-mutant PDC complex spheroid viability
Test: Anticancer human tumor 186277-243-T-J2-PDC patient-derived colon adenocarcinoma cell line growth inhibition [KRAS2]
Conditions: for IC50: curve of first compound; for viability, T/C: stronger effect = lower value; active = viability on the fitted dose curve at most 10% of control; inactive = the rest
Description: Multicellular complex tumor spheroid response to RAS pathway inhibitors in combination with a targeted agents in patient-derived cell lines with oncogenic KRAS variants from multiple cancer types
A high-throughput screen of multi-cell type tumor spheroids was designed to identify active combinations of targeted small molecules and KRAS pathway inhibitors. Complex spheroids include a stromal component modeled by human endothelial cells (HUVEC) and fibroblasts modeled by human mesenchymal stem cells (MSCs). The concentration ranges selected for each drug and investigational agent were based upon clinically achievable concentrations if the clinical Cmax of the agent was known.
Compounds. The drugs and investigational agents: BI-3406 (NSC825286), BAY-293 (NSC824723), batoprotafib (TNO155; NSC825523), sotorasib (AMG 510; NSC818433), MRTX1257 (NSC819558), elimusertib (BAY 1895344; NSC800525), molibresib (GSK525762; NSC774829), temuterkib (LY3214996; NSC803410), venetoclax (NSC766270), alisertib (NSC759677), olaparib (NSC753686), talazoparib (NSC767125), erdafitinib (NSC781556), ipatasertib (NSC767898), cabozantinib (NSC761068), nintedanib (NSC756659), abemaciclib (NSC768073), docetaxel (NSC628503), trametinib (NSC758246), and sapanisertib (NSC764658) were obtained from the National Cancer Institute (NCI) Developmental Therapeutics Program Chemical Repository. The FDA-approved anticancer drug set is available from the Developmental Therapeutics Program. […] The stock solutions were prepared in dimethyl sulfoxide (DMSO, Sigma-Aldrich, St. Louis, MO, cat. D2650) at 800-fold the tested concentration and stored at -70 degrees C prior to their use. All drugs and investigational agents were tested over a range starting from a high concentration at or near the clinical Cmax and decreasing in half-log increments. If the clinical Cmax for an agent had not been determined, the highest concentration tested was 10 microM.
Cell Culture. All cells were maintained in an incubator at 37 degrees C and 5% CO2 with 95% humidity. The PDC lines were cultured according to standard operating procedures established by the NCI PDMR (https://pdmr.cancer.gov/sops/default.htm). Briefly, all PDCs were thawed and cultured in Matrigel-coated flasks prepared with a working solution of 1X Ham's F-12 nutrient mix, without supplementation (Invitrogen, Waltham, MA, cat. 11765054), 100 U/mL penicillin-streptomycin (Invitrogen, cat. 15140122), and 2.5% Matrigel (Corning Inc., Corning, NY, cat. 354248) for the first three passages. All PDCs were cultured in complete DMEM/F-12 media containing advanced DMEM/F-12 (Invitrogen, cat. 12634028), 4.9% defined fetal bovine serum, heat inactivated (HyClone Laboratories Inc., Logan, UT, cat. SH30070.03HI), 389 ng/mL hydrocortisone (Sigma-Aldrich, cat. H4001), 9.7 ng/mL human EGF recombinant protein (Invitrogen, cat. PHG0313), 23.4 microg/mL adenine (Sigma-Aldrich, cat. A2786), 97.3 U/mL penicillin-streptomycin (Invitrogen, cat. 15140122), 1.9 mM L-glutamine (Invitrogen, cat. 25030081), and 9.7 microM Y-27632 dihydrochloride (Tocris Bioscience, Bristol, United Kingdom, cat. 1254). The PDCs were cultured in complete DMEM/F12 media without 9.7 microM Y-27632 dihydrochloride for at least two passages prior to the screen. The established cell line HOP-62 was cultured in RPMI 1640 medium, HEPES (Invitrogen, cat. 22400105) with 10% defined fetal bovine serum (HyClone Laboratories Inc., cat. SH30070.03) and 2 mM L-glutamine (Invitrogen, cat. 25030081). The pooled donor HUVEC were cultured in endothelial cell growth medium 2 (PromoCell, Heidelberg, Germany, cat. C-22011) and the hMSC were cultured in mesenchymal stem cell growth medium 2 (PromoCell, cat. C-28009). For all experiments, HUVEC and hMSC were used at passages </=5, while the malignant cell lines were used at passages </=15. […]

[1] = second compound 0.1 µM, first compound 0.0316 µM
[2] = second compound 0.1 µM, first compound 0.1 µM
[3] = second compound 0.1 µM, first compound 0.316 µM
[4] = second compound 0.1 µM, first compound 1 µM
[5] = second compound 0.1 µM, first compound 3.16 µM
[6] = second compound 0.1 µM, first compound 10 µM
[7] = second compound 0.316 µM, first compound 0.0316 µM
[8] = second compound 0.316 µM, first compound 0.1 µM
[9] = second compound 0.316 µM, first compound 0.316 µM
[10] = second compound 0.316 µM, first compound 1 µM
[11] = second compound 0.316 µM, first compound 3.16 µM
[12] = second compound 0.316 µM, first compound 10 µM
[13] = second compound 1 µM, first compound 0.0316 µM
[14] = second compound 1 µM, first compound 0.1 µM
[15] = second compound 1 µM, first compound 0.316 µM
[16] = second compound 1 µM, first compound 1 µM
[17] = second compound 1 µM, first compound 3.16 µM
[18] = second compound 1 µM, first compound 10 µM
[19] = second compound 3.16 µM, first compound 0.0316 µM
[20] = second compound 3.16 µM, first compound 0.1 µM
[21] = second compound 3.16 µM, first compound 0.316 µM
[22] = second compound 3.16 µM, first compound 1 µM
[23] = second compound 3.16 µM, first compound 3.16 µM
[24] = second compound 3.16 µM, first compound 10 µM
[25] = second compound 10 µM, first compound 0.0316 µM
[26] = second compound 10 µM, first compound 0.1 µM
[27] = second compound 10 µM, first compound 0.316 µM
[28] = second compound 10 µM, first compound 1 µM
[29] = second compound 10 µM, first compound 3.16 µM
[30] = second compound 10 µM, first compound 10 µM
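For viability, T/C in this document: viability read after seven days of compound exposure; 100% = DMSO vehicle-treated spheroids so lower means less viable.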

CC1OCC2(CCN(c3cnc(Sc4ccnc(N)c4Cl)c(N)n3)CC2)C1N (stereo not given) + CNCc1ccccc1-c1csc(C(C)Nc2nc(C)nc3cc(OC)c(OC)cc23)c1
inactive: viability, T/C [1] 96.1% | viability, T/C [2] 104% | viability, T/C [3] 104% | viability, T/C [4] 90.9% | viability, T/C [5] 107% | viability, T/C [6] 105% | viability, T/C [7] 103% | viability, T/C [8] 99.8% | viability, T/C [9] 111% | viability, T/C [10] 108% | viability, T/C [11] 104% | viability, T/C [12] 84.2% | viability, T/C [13] 91.2% | viability, T/C [14] 104% | viability, T/C [15] 95% | viability, T/C [16] 105% | viability, T/C [17] 93.2% | viability, T/C [18] 60.5% | viability, T/C [19] 85.2% | viability, T/C [20] 72.8% | viability, T/C [21] 102% | viability, T/C [22] 71.4% | viability, T/C [23] 11.4%
1520 nM: IC50 (second compound 3.16 µM)
> 10000 nM: IC50 (second compound 0.1 µM) | IC50 (second compound 0.316 µM) | IC50 (second compound 1 µM)
< 31.6 nM: IC50 (second compound 10 µM)
active: viability, T/C [24] 1.07% | viability, T/C [25] 0.18% | viability, T/C [26] 0.18% | viability, T/C [27] 0.17% | viability, T/C [28] 0.15% | viability, T/C [29] 0.12% | viability, T/C [30] 0.15%

O=C(c1cc(Cc2n[nH]c(=O)c3ccccc23)ccc1F)N1CCN(C(=O)C2CC2)CC1 + C=CC(=O)N1CCN(c2nc(=O)n(-c3c(C)ccnc3C(C)C)c3nc(-c4c(O)cccc4F)c(F)cc23)C(C)C1
5740 nM: IC50 (second compound 3.16 µM)
4920 nM: IC50 (second compound 0.316 µM)
inactive: viability, T/C [1] 108% | viability, T/C [2] 111% | viability, T/C [3] 98.6% | viability, T/C [4] 78% | viability, T/C [5] 31.4% | viability, T/C [6] 22.7% | viability, T/C [7] 105% | viability, T/C [8] 101% | viability, T/C [9] 107% | viability, T/C [10] 96.6% | viability, T/C [11] 60.6% | viability, T/C [12] 33.1% | viability, T/C [13] 96.5% | viability, T/C [14] 96.8% | viability, T/C [15] 103% | viability, T/C [16] 107% | viability, T/C [17] 74.6% | viability, T/C [18] 36.4% | viability, T/C [19] 95.7% | viability, T/C [20] 106% | viability, T/C [21] 101% | viability, T/C [22] 89.1% | viability, T/C [23] 67% | viability, T/C [24] 34.6% | viability, T/C [25] 78% | viability, T/C [26] 82.6% | viability, T/C [27] 68.8% | viability, T/C [28] 51.4% | viability, T/C [29] 40.2% | viability, T/C [30] 17.9%
6630 nM: IC50 (second compound 1 µM)
1400 nM: IC50 (second compound 10 µM)
2020 nM: IC50 (second compound 0.1 µM)

CN(C)C/C=C/C(=O)Nc1cc2c(Nc3ccc(F)c(Cl)c3)ncnc2cc1O[C@H]1CCOC1 + CC1OCC2(CCN(c3cnc(Sc4ccnc(N)c4Cl)c(N)n3)CC2)C1N
27.8 nM: IC50 (second compound 10 µM)
inactive: viability, T/C (second compound 0.1 µM, first compound 0.000316 µM) 92.7% | viability, T/C (second compound 0.1 µM, first compound 0.001 µM) 104% | viability, T/C (second compound 0.1 µM, first compound 0.00316 µM) 104% | viability, T/C (second compound 0.1 µM, first compound 0.01 µM) 126% | viability, T/C [1] 100% | viability, T/C [2] 108% | viability, T/C (second compound 0.316 µM, first compound 0.000316 µM) 103% | viability, T/C (second compound 0.316 µM, first compound 0.001 µM) 101% | viability, T/C (second compound 0.316 µM, first compound 0.00316 µM) 112% | viability, T/C (second compound 0.316 µM, first compound 0.01 µM) 104% | viability, T/C [7] 84.5% | viability, T/C [8] 81.4% | viability, T/C (second compound 1 µM, first compound 0.000316 µM) 92.5% | viability, T/C (second compound 1 µM, first compound 0.001 µM) 90.5% | viability, T/C (second compound 1 µM, first compound 0.00316 µM) 93.5% | viability, T/C (second compound 1 µM, first compound 0.01 µM) 99.8% | viability, T/C [13] 99.8% | viability, T/C [14] 99.5% | viability, T/C (second compound 3.16 µM, first compound 0.000316 µM) 97.8% | viability, T/C (second compound 3.16 µM, first compound 0.001 µM) 81.3% | viability, T/C (second compound 3.16 µM, first compound 0.00316 µM) 87.7% | viability, T/C (second compound 3.16 µM, first compound 0.01 µM) 62.6% | viability, T/C [19] 49.4% | viability, T/C [20] 34.6% | viability, T/C (second compound 10 µM, first compound 0.000316 µM) 92.9% | viability, T/C (second compound 10 µM, first compound 0.001 µM) 92% | viability, T/C (second compound 10 µM, first compound 0.00316 µM) 79.6% | viability, T/C (second compound 10 µM, first compound 0.01 µM) 103% | viability, T/C [25] 44.6% | viability, T/C [26] 38.4%
> 100 nM: IC50 (second compound 0.1 µM) | IC50 (second compound 0.316 µM) | IC50 (second compound 1 µM)
28.9 nM: IC50 (second compound 3.16 µM)

COC(=O)c1ccc2c(C(=Nc3ccc(N(C)C(=O)CN4CCN(C)CC4)cc3)c3ccccc3)c(O)[nH]c2c1 + CNCc1ccccc1-c1csc(C(C)Nc2nc(C)nc3cc(OC)c(OC)cc23)c1
inactive: viability, T/C [1] 97.4% | viability, T/C [2] 94.1% | viability, T/C [3] 120% | viability, T/C [4] 92.6% | viability, T/C [5] 12.3% | viability, T/C [7] 101% | viability, T/C [8] 102% | viability, T/C [9] 105% | viability, T/C [10] 56.5% | viability, T/C [13] 104% | viability, T/C [14] 109% | viability, T/C [15] 101% | viability, T/C [16] 30.5% | viability, T/C [19] 25.5% | viability, T/C [20] 20.5%
1140 nM: IC50 (second compound 0.316 µM)
727 nM: IC50 (second compound 1 µM)
1840 nM: IC50 (second compound 0.1 µM)
< 31.6 nM: IC50 (second compound 3.16 µM) | IC50 (second compound 10 µM)
active: viability, T/C [6] 6.55% | viability, T/C [11] 0.86% | viability, T/C [12] 1.8% | viability, T/C [17] 0.19% | viability, T/C [18] 0.16% | viability, T/C [21] 0.12% | viability, T/C [22] 0.06% | viability, T/C [23] 0.03% | viability, T/C [24] 0.1% | viability, T/C [25] 0.13% | viability, T/C [26] 0.12% | viability, T/C [27] 0.1% | viability, T/C [28] 0.08% | viability, T/C [29] 0.09% | viability, T/C [30] 0.14%
